In patent US11384066B1, “Heterocyclic compounds useful as aurora a selective inhibitors” (Jacobio Pharmaceuticals Co., Ltd., priority 2020, dated 2022):

How the values were obtained:
NCI-H446 cells = assay: Cell proliferation assay (CellTiter-Glo), NCI-H446; format: cell-based; details: Homo sapiens, NCI-H446, 120 h, 5 days
Experimental: (§1) Example B: Cell Proliferation Assay
(§2) NCI-H2171 and NCI-H446 cell proliferation analysis were conducted by CellTiter-Glo (Promega, Cat #G1111). The cells will be harvested respectively during the logarithmic growth period and counted with hemocytometer. […] Adjust NCI-H2171 and NCI-H446 cells concentrations to 1.0×10^5 cells/mL with complete medium (RPMI-1640 medium supplemented with 10% (v/v) fetal bovine serum). 100 μL/cell suspensions were added to 96-well plates, and the final cell densities were 1.0×10^4 cells/well. The plate will be cultured overnight in 5% CO2 and 95% humidity at 37° C. The next day, the test compound was dissolved in DMSO as stock solution. Then the different concentrations of compound were added into 96-well plates. The plates will be cultured for 5 days, then measured by means of CellTiter-Glo assay. 50 μL/cell CellTiter-Glo reagent was added into 96-well plates. Shock incubation for 5 min and then stand incubation for 10 min at room temperature. Record the Luminosity values using an microplate spectrophotometer (Spark, Tecan). Fit the data using GraphPad 8.0 and obtain IC50 values.
(§3) Formula: Survival (%)=(Lumtest−Lummedia control)/(Lumcell control−Lummedia control)×100%

NCI-H2171 cells = assay: Cell proliferation assay (CellTiter-Glo), NCI-H2171; format: cell-based; details: Homo sapiens, NCI-H2171, 120 h, 5 days
Experimental: as §1, §2, §3

Aurora A = Aurora A (Homo sapiens (Human), UniProt O14965); assay: Aurora A kinase assay (mobility shift assay); format: biochemical
Aurora A, sequence (O14965 whole entry): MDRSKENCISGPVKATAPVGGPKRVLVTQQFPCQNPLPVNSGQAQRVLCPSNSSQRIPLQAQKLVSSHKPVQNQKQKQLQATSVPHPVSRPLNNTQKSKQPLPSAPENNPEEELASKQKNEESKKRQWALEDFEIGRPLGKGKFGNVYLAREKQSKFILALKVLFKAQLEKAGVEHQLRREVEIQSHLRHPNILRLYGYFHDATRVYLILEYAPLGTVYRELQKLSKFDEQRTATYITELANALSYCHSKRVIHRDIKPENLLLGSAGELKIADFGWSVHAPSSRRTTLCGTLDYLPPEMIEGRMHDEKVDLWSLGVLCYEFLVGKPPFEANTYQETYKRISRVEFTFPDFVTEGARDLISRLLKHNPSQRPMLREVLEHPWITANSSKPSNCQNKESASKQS
Experimental: (§4) Example A: Evaluation of Aurora a and Aurora B Inhibitory Effect—Kinase Assay
(§5) The inhibitory activities of a test compound against Aurora A and Aurora B were measured according to the following method.
(§6) The IC50 value of Aurora A and Aurora B kinase was performed by Sundia MediTech Co. Ltd. using Mobility shift assay.
(§7) • (1) Prepare a 1× kinase buffer [50 mM 4-(2-hydroxyethyl)-1-piperazineethanesulfonic acid (HEPES), PH 7.5, 0.01% Brij-35, 10 mM MgCl2, 2 mM dithiothreitol (DTT)]. • (2) Prepare compound:
(§8) The testing compound was dissolved with DMSO. The testing compound was diluted up to 100× final concentration in a 384-well plate. Transfer 250 nL of the compound dilution to a 384-well assay plate using Echo 550. 100% DMSO of 250 nL was added to the negative control well and the positive control well. • (3) Prepare a 2.5× enzyme solution using the above 1× kinase buffer. • (4) Add 10 μL of the 2.5× enzyme solution to the compound well and the positive control well of the 384-well assay plate. Add 10 μL of the 1× kinase buffer to the negative control well. • (5) The 384-well plate was centrifuged at 1000 rpm for 30 seconds and incubated at room temperature for 10 min. • (6) A mixture of ATP and Kinase substrate 21 with a final concentration of 25/15× was prepared by the 1× kinase buffer. • (7) Add 15 μL of the mixture of 25/15×ATP and kinase substrate solution 21 to start reaction. • (8) The 384-well plate was centrifuged at 1000 rpm for 30 seconds and incubated at room temperature. • (9) 30 μL of the stop and detection buffer was added to stop the kinase reaction and centrifuged at 1000 rpm for 30 seconds. • (10) Collect data on Caliper EZ ReaderII. Data Analysis:
(§9) Conversion %_sample is conversion rate data of samples. Conversion %_min is mean value of negative control (conversion rate data without enzyme activation). Conversion %_max is mean positive control (conversion rate data without compound).
(§10) The log of concentration is on the X axis, and the percentage inhibition is on the Y axis. Fit the Quantitative effect curves with log (inhibitor) vs. response—Variable slope in GraphPad Prism5 obtain IC50 values. Equation used is Y=Bottom+(Top−Bottom)/(1+10^((Log IC50−X)*HillSlope)).

[1] = system: NCI-H446 human small cell lung cancer xenograft; assay: In vivo anti-tumor efficacy, NCI-H446 xenograft model; design: species or system BALB/c nude mice; details: 15 mg/kg po., BID × 10days, QD × 19days, treatment 29 days, Table C does not say which xenograft (NCI-H446 or NCI-H69); for TV (mm^3): mean ± sem
Experimental: This study is to examine the anti-tumor efficacy of test compounds in NCI-H446 and NCI-H69 human small cell lung cancer xenograft model in BALB/c nude mice. Each mouse was inoculated subcutaneously at the right flank region with NCI-H446 (3×10^6) and NCI-H69 cells (5×10^6) in 0.1 mL of PBS and Matrigel (1:1) for tumor development. The mouse were randomized according to tumor size and weight, the treatment began when the mean tumor size reached 100-200 mm^3. Anti-tumor activity was assessed according to relative tumor inhibition rate (TGI).
Tumor volumes were measured in two dimensions using a caliper, and the volume was expressed in mm^3 using the formula: V=0.5 a×b^2 where a and b are the long and short diameters of the tumor, respectively. Statistical analysis of difference in tumor volume among the groups were performed using one-way ANOVA. All data was analyzed using SPSS 22.0 software, p<0.05 was considered to be statistically significant.

Aurora B = Aurora B (Homo sapiens (Human), UniProt Q96GD4); assay: Aurora B kinase assay (mobility shift assay); format: biochemical; details: ratio of Aurora B IC50 to Aurora A IC50
Aurora B, sequence (Q96GD4 whole entry): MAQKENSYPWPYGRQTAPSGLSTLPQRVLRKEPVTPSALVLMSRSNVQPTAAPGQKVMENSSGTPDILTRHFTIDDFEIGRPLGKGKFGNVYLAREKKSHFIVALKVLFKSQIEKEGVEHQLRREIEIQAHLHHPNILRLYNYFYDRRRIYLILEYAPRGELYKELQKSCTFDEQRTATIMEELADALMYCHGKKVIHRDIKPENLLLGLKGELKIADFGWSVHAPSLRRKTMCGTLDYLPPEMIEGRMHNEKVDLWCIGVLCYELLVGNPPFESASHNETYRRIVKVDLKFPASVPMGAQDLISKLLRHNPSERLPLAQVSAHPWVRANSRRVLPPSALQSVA
Experimental: as §4, §5, §6, §7, §8, §9, §10

PK in rat = format: in vivo; details: rat, plasma, SD male rats; for clearance / Vd: IV: 3 mg/kg; for Vd: read-out: Vss; for AUC(0-t) / half-life / Cmax: PO: 10 mg/kg; for bioavailability: PO: 10 mg/kg vs IV: 3 mg/kg; for Cmax: read-out: Cmax
Experimental: The compounds were dissolved into 10% DMSO, 30% PEG400, and 60% saline to obtain a solution. SD male rats were given the compound orally and intravenously. Then plasma samples were collected at 0 hour (pre-dose), 0.25, 0.5, 1, 2, 4, 7, 24 hours post-dose. Plasma drug concentration was detected by LC-MS/MS. Pharmacokinetic parameters were calculated using WinNonlin's software with non-compartmental model.

Row | IC50 (NCI-H446 cells) [nM] | IC50 (NCI-H2171 cells) [nM] | IC50 (Aurora A) [nM] | IC50 Ratio Aur B/Aur A (Aurora B) | clearance (PK in rat) [mL/min/kg] | Vd (PK in rat) [L/kg] | AUC(0-t) (PK in rat) [µg·h/mL] | half-life (PK in rat) [h] | bioavailability (PK in rat) [%] | Cmax (PK in rat) [ng/mL] | Structure (SMILES) | TGITV(%) [1] [%] | TV (mm^3) [1] [mm^3]
1 | 56 | 23 | 0.64 | 582 | – | – | – | – | – | – | Cc1cc(Nc2cc(Cl)c(F)c(C[C@@]3(C(=O)O)CCN(Cc4cccc(Cl)c4F)[C@H](C)C3)n2)n[nH]1 [Example 72, (2R,4R)-1-(3-chloro-2-fluorobenzyl)-4-((4-chloro-3-fluoro-6-((5-methyl-1H-pyrazol-3-yl)amino)pyridin-2-yl)methyl)-2-methylpiperidine-4-carboxylic acid] | 89 | 176 ± 25
2 | 32 | 13 | 0.37 | 1219 | 0.585 | 0.22 | 236 | 4.61 | 85.8 | 28900 | Cc1cc(Nc2nc(C[C@@]3(C(=O)O)CCN(Cc4cccc(Cl)c4F)[C@H](C)C3)cc(C)c2F)n[nH]1 [Example 78, (2R,4R)-1-(3-chloro-2-fluorobenzyl)-4-((5-fluoro-4-methyl-6-((5-methyl-1H-pyrazol-3-yl)amino)pyridin-2-yl)methyl)-2-methylpiperidine-4-carboxylic acid] | 96 | 65 ± 14
3 | 24 | 18 | 0.7 | 443 | 1.05 | 0.22 | 202 | 2.95 | 127 | 21000 | Cc1cc(Nc2cc(C)c(F)c(C[C@@]3(C(=O)O)CCN(Cc4cccc(Cl)c4F)[C@H](C)C3)n2)n[nH]1 [Example 49, (2R,4R)-1-(3-chloro-2-fluorobenzyl)-4-((3-fluoro-4-methyl-6-((5-methyl-1H-pyraz-ol-3-yl)amino)pyridin-2-yl)methyl)-2-methylpiperidine-4-carboxylic acid] | 90 | 160 ± 26
4 | 73 | 25 | 0.52 | 845 | 1.45 | 0.26 | 173 | 3.62 | 140 | 16100 | Cc1cc(Nc2cc(C)c(F)c(C[C@@]3(C(=O)O)CCN(Cc4c(F)ccc(Cl)c4F)[C@H](C)C3)n2)n[nH]1 [Example 50, (2R,4R)-1-(3-chloro-2,6-di-fluorobenzyl)-4-((3-fluoro-4-methyl-6-((5-methyl-1H-pyra-zol-3-yl)amino)pyridin-2-yl)-methyl)-2-methylpiperidine-4-carboxylic acid] | – | –
5 | 103 | 55 | 0.33 | 6112 | 0.67 | 0.18 | 215 | 6.3 | 86 | 34900 | Cc1cc(Nc2ccc(F)c(C[C@@]3(C(=O)O)CCN(Cc4c(F)ccc(Cl)c4F)[C@H](C)C3)n2)n[nH]1 [Example 6, (2R,4R)-1-(3-chloro-2,6-difluorobenzyl)-4-((3-fluoro-6-((5-methyl-1H-pyrazol-3-yl)amino)pyridin-2-yl)methyl)-2-methylpiperidine-4-carboxylic acid] | – | –
6 | 80 | 30 | 0.59 | 1311 | 2.74 | 0.56 | 179 | 4.25 | 168 | 26600 | Cc1cc(Nc2nc(C[C@@]3(C(=O)O)CCN(Cc4cccc(Cl)c4F)[C@H](C)C3)ccc2F)[nH]n1 [Example 5, (2R,4R)-1-(3-chloro-2-fluorobenzyl)-4-((5-fluoro-6-((3-methyl-1H-pyrazol-5-yl)amino)pyridin-2-yl)methyl)-2-methylpiperidine-4-carboxylic acid] | 98 | 27 ± 5
